# Data published in US12167995B2, “[((1R,2S,5R)-2-isopropyl-5-methyl-cyclohexanecarbonyl)-amino]-acetic acid isopropyl ester for treatment of chronic cough” (AXALBION SA, priority 2019, dated 2024).
# pEC50: −log10 of the molar value. Entries after “also recorded” stand apart in the source; their conditions may differ.
# Tests used:
# [1] = target: T1, human TRPM8 (Homo sapiens, UniProt Q7Z2W7); assay: FLIPR calcium assay on cloned human TRPM8 channels expressed in CHO cells; assay type: cell-based
# T1 construct: host or cells: CHO cells
# Protocol: AX-8 potency was assessed using Fluorescence Imaging Plate Reader (FLIPR®) assays (study performed by ChanTest/Charles River). The in vitro effects were evaluated on cloned human TRPM8 channels expressed in CHO cells using a Fluo-8 calcium kit and a Fluorescence Imaging Plate Reader ([…]™) instrument. Changes is fluorescence intensity, reflecting the calcium flux through hTRPM8, were measured and the area under the signals (area under the curve, AUC) calculated and expressed in relative light units. Changes induced by the vehicle (HEPES-buffered physiological saline solution, HB-PS) were subtracted.
# [2] = tested on: isolated guinea pig vagal nerves; assay: Capsaicin-induced depolarization on isolated guinea pig vagal nerves (grease-gap recording)
# Protocol: The vagal nerve is the main afferent pathway of the cough reflex loop. Therefore, the ability—and dependence on TRPM8—of AX-8 to inhibit the capsaicin-induced depolarization on isolated guinea pig vagal nerves was assessed. The tissue was assayed using an O2/CO2 gassed, grease-gap recording system as previously described (see, e.g., Birrell et al., 2009). Briefly, after the tissue has stabilised, it was exposed to a challenge (capsaicin, 1 μM, TRPV1 agonist for 2 minutes), then washed. This was then repeated to confirm the basal response. After washing, the tissue was incubated with vehicle or AX-8 (10 nM-1 mM) for 10 minutes. Following this, the tissue was re-challenged with capsaicin (in the presence of vehicle or AX-8).
# Where the TRPM8 antagonist PF-05105679 (PF, 10 μM) was used, following the two reproducible responses to capsaicin, the nerve was incubated with the TRPM8 antagonist or vehicle (0.1% DMSO) for 10 minutes, prior to incubation with AX-8 or vehicle for 10 minutes. The nerve was then restimulated with capsaicin in the presence of PF/Vehicle and AX-8/Vehicle and the percentage of inhibition of the original response calculated. Following a wash period, the nerve was then restimulated with capsaicin to determine viability. The level of depolarization was recorded at each phase. The data were recorded as actual depolarisation levels and as a percentage inhibition (caused by the vehicle or test compound) of the mean of the initial, control recordings.
# [3] = tested on: capsaicin-induced cough; assay: Capsaicin-induced cough in awake guinea pig; assay type: in vivo
# Protocol: AX-8's antitussive effect was evaluated in a standardized guinea pig model of cough (see, e.g., Brozmanova et al., 2012; Dong et al., 2016). Guinea pigs were placed in a plethysmography chamber and exposed for 10 minutes to nebulized capsaicin solution (0.1 mM) to induce cough. The cough frequency was detected as a transient change in airflow in the chamber and the signal recorded via a pressure transducer and computer. Additionally, the audio-amplified count was also recorded electronically. Coughs were counted for the 10-minute exposure period. The experiment was visually monitored by the investigator. A 5 mg/mL AX-8 solution was prepared by dissolving AX-8 in absolute ethanol at 200 mg/mL and then diluting in a solution of 4 mg/mL of sweet potato powder in saline (i.e., vehicle). The baseline frequency of coughing in response to exposure to capsaicin mist was recorded for the control (vehicle only) and treated (AX-8) group of animals (n=10 animals per group). Seven days later, animals were anesthetized with diethyl ether and a small animal laryngoscope was used to place the tip of a micro sprayer syringe in the oral cavity. Vehicle or AX-8 was administered into the oropharyngeal region at 75 μL per animal (n=10 animals per group). […] Ten minutes after administration, the guinea pigs were exposed to the capsaicin mist and the number of coughs recorded.
# [4] = Phase 1 study in healthy volunteers: safety and tolerability; assay type: in vivo, human; settings: single dose 5 mg ODT, 12 healthy subjects; no remarkable adverse events
# T1 sequence (Q7Z2W7 whole entry): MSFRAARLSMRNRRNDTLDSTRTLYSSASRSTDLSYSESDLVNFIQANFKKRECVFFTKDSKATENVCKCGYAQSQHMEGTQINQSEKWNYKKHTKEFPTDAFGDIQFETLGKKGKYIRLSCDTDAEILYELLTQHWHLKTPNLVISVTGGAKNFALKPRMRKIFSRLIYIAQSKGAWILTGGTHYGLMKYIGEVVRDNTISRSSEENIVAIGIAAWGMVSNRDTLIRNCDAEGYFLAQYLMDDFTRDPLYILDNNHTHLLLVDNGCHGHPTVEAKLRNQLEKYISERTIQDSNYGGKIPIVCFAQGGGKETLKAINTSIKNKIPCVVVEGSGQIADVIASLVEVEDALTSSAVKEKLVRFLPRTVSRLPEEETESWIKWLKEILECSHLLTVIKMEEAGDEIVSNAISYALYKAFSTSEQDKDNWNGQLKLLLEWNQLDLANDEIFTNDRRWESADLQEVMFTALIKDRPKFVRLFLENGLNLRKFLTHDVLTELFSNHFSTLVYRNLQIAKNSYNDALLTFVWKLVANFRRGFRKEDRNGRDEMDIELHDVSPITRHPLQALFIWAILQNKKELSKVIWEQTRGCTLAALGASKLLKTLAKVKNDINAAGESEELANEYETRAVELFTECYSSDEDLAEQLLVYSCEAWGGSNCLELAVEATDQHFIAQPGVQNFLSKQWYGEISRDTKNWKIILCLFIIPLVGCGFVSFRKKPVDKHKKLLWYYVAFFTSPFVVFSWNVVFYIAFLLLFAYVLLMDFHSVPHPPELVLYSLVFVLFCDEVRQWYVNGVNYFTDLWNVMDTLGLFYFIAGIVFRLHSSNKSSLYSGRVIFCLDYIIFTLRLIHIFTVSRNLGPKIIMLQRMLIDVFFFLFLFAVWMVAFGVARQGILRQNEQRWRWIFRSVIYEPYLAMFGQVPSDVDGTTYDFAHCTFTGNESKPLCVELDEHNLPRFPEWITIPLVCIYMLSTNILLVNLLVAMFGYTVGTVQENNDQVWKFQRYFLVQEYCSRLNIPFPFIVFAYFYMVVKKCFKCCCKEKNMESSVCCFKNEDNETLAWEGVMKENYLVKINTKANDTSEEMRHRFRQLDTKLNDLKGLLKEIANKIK
smiles,measurement,setting,value
"CC(C)OC(=O)CNC(=O)[C@@H]1C[C@H](C)CC[C@H]1C(C)C [AX-8, [((1R,2S,5R)-2-isopropyl-5-methyl-cyclohexanecarbonyl)-amino]-acetic acid isopropyl ester]",pEC50,"[1]; calcium signal AUC, Fluo-8, n=8, read-out: half-maximal response concentration (EC50), activation of human TRPM8",6.41
same,potency as TRPM8 agonist relative to menthol,[1]; ratio of EC50 values,~6 times
same,inhibition of the capsaicin-induced response in the presence of TRPM8 antagonist PF-05105679,"[2]; AX-8 1 μM, PF-05105679 10 μM pre-incubated 10 min, n=4",suppressed by pre-application of the TRPM8 antagonist PF-05105679; also recorded: blocked by the selective TRPM8 inhibitor PF-05105679
same,inhibition of the capsaicin-induced response (maximum),"[2]; capsaicin 1 μM, AX-8 10 nM-1 mM, 10 min incubation, n=3",up to 80%
same,inhibition of the capsaicin-induced response versus concentration,"[2]; capsaicin 1 μM, n=3",blocked in a dose-dependent manner
same,capsaicin-induced coughs after treatment,"[3]; 0.375 mg/animal sprayed in oropharyngeal region 10 min before 0.1 mM capsaicin mist, Baseline (T) 25.0±2.0, n=10, p<0.01",9.0±2.0 coughs/10 min
same,effect on capsaicin-induced cough,"[3]; 5 mg/mL solution, 75 μL per animal",inhibited significantly capsaicin-induced cough; also recorded: inhibits cough induced by an irritant
same,safety and tolerability,[4],well tolerated
